According to patent US8980830B2 (priority 2007, dated 2015):
Read-outs that look alike come from different tables or passages of the source. Bridge positions count the residues as written; N and C are the ends. Square brackets hold non-standard residues; d marks the D form. Ends that are not written are not given here. Peptide text beside a SMILES is read from it. * marks the point of attachment. X1 = CC(C)CCC[C@@H](C)[C@H]1CC[C@H]2[C@@H]3CC=C4C[C@@H](OC(=O)CCOCCOCCOCCOCCOCCOCCOCCOCCOCCOCCOCCOCCNC(=O)CSCCC(=O)*)CC[C@]4(C)[C@H]3CC[C@]12C; MCA = alpha-methylhydrocinnamic acid (2-methyl-3-phenylpropanoic acid); Abu(4-SO3H) = N[C@@H](CCS(=O)(=O)O)C(=O)O; Palmitoyl = CCCCCCCCCCCCCCCC(=O)*; PhLac = O=C(O)[C@@H](O)Cc1ccccc1; Aad = N[C@@H](CCCC(=O)O)C(=O)O

Key:
GLP-1 Receptor = GLP-1 Receptor (Homo sapiens, UniProt P43220); assay: Functional assay, cAMP induction (luciferase reporter, HEK293) at GLP-1 receptor; format: cell-based; settings: GLP-1 agonism EC50 (nM)
GLP-1 Receptor, sequence (P43220 24-463): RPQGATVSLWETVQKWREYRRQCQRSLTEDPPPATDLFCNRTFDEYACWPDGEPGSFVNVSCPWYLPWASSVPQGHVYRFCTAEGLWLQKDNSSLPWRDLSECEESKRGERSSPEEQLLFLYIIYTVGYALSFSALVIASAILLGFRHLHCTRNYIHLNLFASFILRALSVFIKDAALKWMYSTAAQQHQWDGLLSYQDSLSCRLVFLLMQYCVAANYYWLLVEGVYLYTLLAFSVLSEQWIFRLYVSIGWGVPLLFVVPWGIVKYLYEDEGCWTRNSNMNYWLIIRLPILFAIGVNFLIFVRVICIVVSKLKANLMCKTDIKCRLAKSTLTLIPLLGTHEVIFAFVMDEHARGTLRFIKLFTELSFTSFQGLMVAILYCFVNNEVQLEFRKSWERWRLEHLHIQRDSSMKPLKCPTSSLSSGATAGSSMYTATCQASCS

Glucagon Receptor = Glucagon Receptor (Homo sapiens, UniProt P47871); assay: cAMP inhibition: antagonism of glucagon-induced cAMP at glucagon receptor; format: cell-based; design: expressed in transfected cells; host or cells: HEK293; settings: for IC50 (nM) (cAMP, inhibit 0.2 mM Glucagon): Table 12
Glucagon Receptor, sequence (P47871 26-477): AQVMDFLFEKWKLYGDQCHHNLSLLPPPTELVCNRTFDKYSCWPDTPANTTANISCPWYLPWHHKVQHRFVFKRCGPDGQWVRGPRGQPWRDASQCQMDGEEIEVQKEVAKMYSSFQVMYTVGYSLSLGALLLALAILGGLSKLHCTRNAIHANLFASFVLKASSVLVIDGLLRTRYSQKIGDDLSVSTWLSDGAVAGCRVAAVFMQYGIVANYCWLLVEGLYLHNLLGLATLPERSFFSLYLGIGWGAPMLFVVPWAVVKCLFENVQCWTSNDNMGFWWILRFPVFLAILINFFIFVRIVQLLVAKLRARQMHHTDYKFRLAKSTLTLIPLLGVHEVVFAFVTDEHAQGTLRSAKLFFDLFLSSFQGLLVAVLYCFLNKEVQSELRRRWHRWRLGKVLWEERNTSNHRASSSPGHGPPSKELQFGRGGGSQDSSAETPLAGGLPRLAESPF

CSCC[C@@H]1NC(=O)[C@H](CC(C)C)NC(=O)[C@H](Cc2c[nH]c3ccccc23)NC(=O)[C@@H](NC(=O)[C@@H](NC(=O)[C@H](Cc2ccccc2)NC(=O)[C@H](CC(=O)O)NC(=O)[C@H](CCC(N)=O)NC(=O)[C@H](C)NC(=O)[C@H](CCCNC(=N)N)NC(=O)[C@H](CCCNC(=N)N)NC(=O)[C@H](CCC(=O)O)NC(=O)[C@H](CC(=O)O)NC(=O)[C@H](CC(C)C)NC(=O)[C@H](Cc2ccc(O)cc2)NC(=O)[C@H](CCCCN)NC(=O)[C@H](CO)NC(=O)[C@H](Cc2ccc(O)cc2)NC(=O)[C@H](CC(=O)O)NC(=O)[C@H](CO)NC(=O)[C@@H](NC(=O)[C@@H](O)Cc2ccccc2)[C@@H](C)O)C(C)C)CCC(=O)NCCCC[C@@H](C(=O)N[C@H](C(N)=O)[C@@H](C)O)NC1=O (H-[PhLac]TSDYSKYLDERRAQDFVEWLMKT-NH2; lactam 19-23)
EC50 (GLP-1 Receptor; Table 17): 289 ± 149 nM

CSCC[C@H](NC(=O)[C@H](CC(C)C)NC(=O)[C@H](Cc1c[nH]c2ccccc12)NC(=O)[C@H](CCC(N)=O)NC(=O)[C@@H](NC(=O)[C@H](Cc1ccccc1)NC(=O)[C@H](CC(=O)O)NC(=O)[C@@H]1CCCCNC(=O)CC[C@H](NC(=O)[C@H](CC(=O)O)NC(=O)[C@H](CC(C)C)NC(=O)[C@H](Cc2ccc(O)cc2)NC(=O)[C@H](CCCCN)NC(=O)[C@H](CO)NC(=O)[C@H](CCCCNC(=O)CCSCC(=O)NCCOCCOCCOCCOCCOCCOCCOCCOCCOCCOCCOCCOCCC(=O)O[C@H]2CC[C@@]3(C)C(=CC[C@H]4[C@@H]5CC[C@H]([C@H](C)CCCC(C)C)[C@@]5(C)CC[C@@H]43)C2)NC(=O)[C@H](CC(=O)O)NC(=O)[C@H](CO)NC(=O)[C@@H](NC(=O)[C@@H](O)Cc2ccccc2)[C@@H](C)O)C(=O)N[C@@H](CCCNC(=N)N)C(=O)N[C@@H](CCCNC(=N)N)C(=O)N[C@@H](C)C(=O)N1)C(C)C)C(=O)N[C@@H](CC(=O)O)C(=O)N[C@H](C(N)=O)[C@@H](C)O [K10-chol G(6-29), [PLA6, K10(COCH2CH2S-Chol), E16K20(lactam), D28]G(6-29) amide] (H-[PhLac]TSDK(X1)SKYLDERRAKDFVQWLMDT-NH2; lactam 11-15)
EC50 (GLP-1 Receptor; Table 23, standard deviation in ( )): 35.3 nM

CSCC[C@H](NC(=O)[C@H](CC(C)C)NC(=O)[C@H](Cc1c[nH]c2ccccc12)NC(=O)[C@H](CCC(N)=O)NC(=O)[C@@H](NC(=O)[C@H](Cc1ccccc1)NC(=O)[C@H](CC(=O)O)NC(=O)[C@@H]1CCCCNC(=O)CC[C@H](NC(=O)[C@H](CC(=O)O)NC(=O)[C@H](CC(C)C)NC(=O)[C@H](Cc2ccc(O)cc2)NC(=O)[C@H](CCCCN)NC(=O)[C@H](CO)NC(=O)[C@H](Cc2ccc(O)cc2)NC(=O)[C@H](CC(=O)O)NC(=O)[C@H](CO)NC(=O)[C@@H](NC(=O)[C@H](Cc2ccccc2)OC(=O)[C@@H](NC(=O)CNC(=O)[C@H](CCC(=O)O)NC(=O)[C@H](C)N)[C@@H](C)O)[C@@H](C)O)C(=O)N[C@@H](CCCNC(=N)N)C(=O)N[C@@H](CCCNC(=N)N)C(=O)N[C@@H](C)C(=O)N1)C(C)C)C(=O)N[C@@H](CC(=O)O)C(=O)N[C@H](C(N)=O)[C@@H](C)O [[A2E3-O-PLA6, D9, E16K20(Lactam), D28] G(2-29)] (H-AEGT[PhLac]TSDYSKYLDERRAKDFVQWLMDT-NH2; lactam 15-19; N-terminus assumed)
EC50 (GLP-1 Receptor; Table 24): 18 ± 2.14 nM

CCCCCCCCCCCCCCCC(=O)O[C@@H](Cc1ccccc1)C(=O)N[C@H](C(=O)N[C@@H](CO)C(=O)N[C@@H](CC(=O)O)C(=O)N[C@@H](Cc1ccc(O)cc1)C(=O)N[C@@H](CO)C(=O)N[C@@H](CCCCN)C(=O)N[C@@H](Cc1ccc(O)cc1)C(=O)N[C@@H](CC(C)C)C(=O)N[C@@H](CC(=O)O)C(=O)N[C@H]1CCC(=O)NCCCC[C@@H](C(=O)N[C@@H](CC(=O)O)C(=O)N[C@@H](Cc2ccccc2)C(=O)N[C@H](C(=O)N[C@@H](CCC(N)=O)C(=O)N[C@@H](Cc2c[nH]c3ccccc23)C(=O)N[C@@H](CC(C)C)C(=O)N[C@@H](CCSC)C(=O)N[C@@H](CC(=O)O)C(=O)N[C@H](C(N)=O)[C@@H](C)O)C(C)C)NC(=O)[C@H](C)NC(=O)[C@H](CCCNC(=N)N)NC(=O)[C@H](CCCNC(=N)N)NC1=O)[C@@H](C)O [[C16FA-O-PLA6, E16K20(lactam),D28]G(6-29)] (Palmitoyl-[PhLac]TSDYSKYLDERRAKDFVQWLMDT-NH2; lactam 11-15)
EC50 (GLP-1 Receptor; Table 22): 45.7 ± 13.8 nM

CC(C)C[C@H](NC(=O)[C@H](Cc1ccc(O)cc1)NC(=O)[C@H](CCCCN)NC(=O)[C@H](CO)NC(=O)[C@H](Cc1ccc(O)cc1)NC(=O)[C@H](CCS(=O)(=O)O)NC(=O)[C@H](CO)NC(=O)[C@@H](NC(=O)[C@H](Cc1ccccc1)NC(=O)[C@@H](NC(=O)[C@H](CC(C)C)NC(=O)[C@H](CCC(N)=O)NC(=O)[C@@H](N)CO)[C@@H](C)O)[C@@H](C)O)C(=O)N[C@@H](CC(=O)O)C(=O)N[C@@H](CO)C(=O)N[C@@H](CCCNC(=N)N)C(=O)N[C@@H](CCCNC(=N)N)C(=O)N[C@@H](C)C(=O)N[C@@H](CCC(N)=O)C(=O)N[C@@H](CC(=O)O)C(=O)N[C@@H](Cc1ccccc1)C(=O)N[C@H](C(=O)N[C@@H](CCC(N)=O)C(=O)N[C@@H](Cc1ccccc1)C(=O)N[C@@H](CC(C)C)C(=O)N[C@@H](CC(C)C)C(=O)N[C@@H](CC(N)=O)C(=O)N[C@H](C(N)=O)[C@@H](C)O)C(C)C [[desHis^1, Leu^4, hCys^9(SO3−), Phe^25, Leu^27] Glucagon-NH2] (H-SQLTFTS[Abu(4-SO3H)]YSKYLDSRRAQDFVQFLLNT-NH2; N-terminus assumed)
glucagon antagonism, in words (Glucagon Receptor): some level of antagonism

CC(C)C[C@H](NC(=O)[C@H](Cc1ccc(O)cc1)NC(=O)[C@H](CCCCN)NC(=O)[C@H](CO)NC(=O)[C@H](Cc1ccc(O)cc1)NC(=O)[C@H](CCS(=O)(=O)O)NC(=O)[C@H](CO)NC(=O)[C@@H](NC(=O)[C@@H](NC(=O)CNC(=O)[C@H](CCC(N)=O)NC(=O)[C@@H](N)CO)[C@@H](C)O)[C@@H](C)O)C(=O)N[C@@H](CC(=O)O)C(=O)N[C@@H](CO)C(=O)N[C@@H](CCCNC(=N)N)C(=O)N[C@@H](CCCNC(=N)N)C(=O)N[C@@H](C)C(=O)N[C@@H](CCC(N)=O)C(=O)N[C@@H](CC(=O)O)C(=O)N[C@@H](Cc1ccccc1)C(=O)N[C@H](C(=O)N[C@@H](CCC(N)=O)C(=O)N[C@@H](Cc1ccccc1)C(=O)N[C@@H](CC(C)C)C(=O)N[C@@H](CC(C)C)C(=O)N[C@@H](CC(N)=O)C(=O)N[C@H](C(N)=O)[C@@H](C)O)C(C)C [[desHis^1, desPhe^6, hCys^9(SO3−), Phe^25, Leu^27] Glucagon-NH2] (H-SQGTTS[Abu(4-SO3H)]YSKYLDSRRAQDFVQFLLNT-NH2; N-terminus assumed)
glucagon antagonism, in words (Glucagon Receptor): some level of antagonism

CSCC[C@H](NC(=O)[C@H](CC(C)C)NC(=O)[C@H](Cc1c[nH]c2ccccc12)NC(=O)[C@H](CCC(N)=O)NC(=O)[C@@H](NC(=O)[C@H](Cc1ccccc1)NC(=O)[C@H](CC(=O)O)NC(=O)[C@H](CCC(N)=O)NC(=O)[C@H](C)NC(=O)[C@H](CCCNC(=N)N)NC(=O)[C@H](CCCNC(=N)N)NC(=O)[C@H](CO)NC(=O)[C@H](CC(=O)O)NC(=O)[C@H](CC(C)C)NC(=O)[C@H](Cc1ccc(O)cc1)NC(=O)[C@H](CCCCN)NC(=O)[C@H](CO)NC(=O)[C@H](Cc1ccc(O)cc1)NC(=O)[C@H](CCS(=O)(=O)O)NC(=O)[C@H](CO)NC(=O)[C@@H](NC(=O)[C@@H](N)Cc1ccccc1)[C@@H](C)O)C(C)C)C(=O)N[C@@H](CC(N)=O)C(=O)N[C@H](C(N)=O)[C@@H](C)O [[hCys^9(SO3H)]Glucagon(aa6-29)-NH2] (H-FTS[Abu(4-SO3H)]YSKYLDSRRAQDFVQWLMNT-NH2; N-terminus assumed)
cAMP pA2 (Glucagon Receptor; Table 9): 7.16 ± 0.51

CSCC[C@H](NC(=O)[C@H](CC(C)C)NC(=O)[C@H](Cc1c[nH]c2ccccc12)NC(=O)[C@H](CCC(N)=O)NC(=O)[C@@H](NC(=O)[C@H](Cc1ccccc1)NC(=O)[C@H](CC(=O)O)NC(=O)[C@H](CCC(N)=O)NC(=O)[C@H](C)NC(=O)[C@H](CCCNC(=N)N)NC(=O)[C@H](CCCNC(=N)N)NC(=O)[C@H](CO)NC(=O)[C@H](CC(=O)O)NC(=O)[C@H](CC(C)C)NC(=O)[C@H](Cc1ccc(O)cc1)NC(=O)[C@H](CCCCN)NC(=O)[C@H](CO)NC(=O)[C@H](Cc1ccc(O)cc1)NC(=O)[C@H](CCCC(=O)O)NC(=O)[C@H](CO)NC(=O)[C@@H](NC(=O)[C@@H](N)Cc1ccccc1)[C@@H](C)O)C(C)C)C(=O)N[C@@H](CC(N)=O)C(=O)N[C@H](C(N)=O)[C@@H](C)O [[hGlu^9]Glucagon(aa6-29)-NH2] (H-FTS[Aad]YSKYLDSRRAQDFVQWLMNT-NH2; N-terminus assumed)
cAMP pA2 (Glucagon Receptor; Table 9): 6.27 ± 0.11

FTSDYSKYLDSRRAQDFVQWLMNT-NH2 [Glucagon(aa6-29)-NH2]
cAMP pA2 (Glucagon Receptor; Table 9): 6.94 ± 0.63

FTSEYSKYLDERRAQDFVQWLMNTGPSSGAPPPS-NH2 [E9, K12, E16]
IC50 (Glucagon Receptor; Glucagon antagonism IC50 (nM, inhibit 0.2-0.8 nM glucagon), Table 16, combined results of three assays): 762 ± 127 nM

FTSKYSKYLDSRRAQDFVQWLMNT-NH2 [[Lys^9]Glucagon(aa6-29)-NH2]
cAMP pA2 (Glucagon Receptor): 6.58 ± 0.60

[MCA^6, E^9, C^24(20kDaPEG)]Glucagon(aa6-29)-NH2 ([MCA]TSEYSKYLDSRRAQDFVC(PEG 20 kDa)WLMNT-NH2)
IC50 (nM) (cAMP, inhibit 0.2 mM Glucagon) (Glucagon Receptor): no antagonism

[PLA6, E9,E16K20(Lactam), C24(20 kDa)]G(6-29) ([PhLac]TSEYSKYLDERRAKDFVC(PEG 20 kDa)WLMNT; lactam 11-15)
Glucagon antagonism IC50(nM) (inhibit 0.2-0.8 nM glucagon) (Glucagon Receptor): Not detect

[PLA6, K12E16(Lactam), D28,CEX-C40(20 kDa)]G(6-40) ([PhLac]TSDYSKYLDERRAQDFVQWLMDTGPSSGAPPPSC(PEG 20 kDa); lactam 7-11)
Glucagon antagonism IC50(nM) (inhibit 0.2-0.8 nM glucagon) (Glucagon Receptor): Not antagonist (n = 1)

[PLA^6, C^8(1.2kDaPEG), E^9]Glucagon(aa6-29)-NH2 ([PhLac]TC(PEG 1.2 kDa)EYSKYLDSRRAQDFVQWLMNT-NH2)
IC50 (nM) (cAMP, inhibit 0.2 mM Glucagon) (Glucagon Receptor): no antagonism
